Experiment [1] addresses T1, Kynureninase (Rattus norvegicus, UniProt P70712).
T1 sequence (P70712 whole entry): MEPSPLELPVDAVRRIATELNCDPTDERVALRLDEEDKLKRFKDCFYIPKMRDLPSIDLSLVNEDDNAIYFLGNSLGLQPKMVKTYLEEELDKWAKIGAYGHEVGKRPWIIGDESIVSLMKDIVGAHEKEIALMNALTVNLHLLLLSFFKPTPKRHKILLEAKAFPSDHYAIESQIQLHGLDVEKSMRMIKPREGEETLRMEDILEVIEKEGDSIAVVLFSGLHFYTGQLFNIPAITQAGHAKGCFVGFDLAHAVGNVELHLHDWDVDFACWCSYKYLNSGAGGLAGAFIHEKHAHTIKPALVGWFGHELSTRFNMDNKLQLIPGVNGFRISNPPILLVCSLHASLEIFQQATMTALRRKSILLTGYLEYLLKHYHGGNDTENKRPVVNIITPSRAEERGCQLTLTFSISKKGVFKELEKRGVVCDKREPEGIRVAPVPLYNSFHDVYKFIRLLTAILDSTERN
The experiment is described as follows: Tested for binding affinity against kynureninase enzyme from rat.

The target in experiment [2] is T2, Kynureninase (Homo sapiens, UniProt Q16719).
T2 sequence (Q16719 whole entry): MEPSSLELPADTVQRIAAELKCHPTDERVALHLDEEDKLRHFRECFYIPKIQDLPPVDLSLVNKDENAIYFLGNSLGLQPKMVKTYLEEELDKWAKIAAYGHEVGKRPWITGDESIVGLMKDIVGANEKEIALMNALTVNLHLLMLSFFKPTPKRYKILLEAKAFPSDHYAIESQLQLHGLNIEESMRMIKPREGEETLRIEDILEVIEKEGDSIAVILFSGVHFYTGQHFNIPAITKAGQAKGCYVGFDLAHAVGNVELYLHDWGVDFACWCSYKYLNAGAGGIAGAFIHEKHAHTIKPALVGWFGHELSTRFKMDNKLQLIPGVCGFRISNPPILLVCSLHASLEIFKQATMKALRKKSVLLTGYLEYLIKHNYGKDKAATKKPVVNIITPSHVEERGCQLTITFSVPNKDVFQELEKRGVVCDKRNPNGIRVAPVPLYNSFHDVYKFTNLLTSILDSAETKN
Put plainly: Tested for binding affinity against kynureninase enzyme from human.

Regarding `NC(CC(O)c1cccc(O)c1)C(=O)O` (configuration not stated), the Ki (in general, the dissociation constant of the complex between target and ligand, obtained from inhibition or displacement) on Kynureninase [1] amounted to 130 nM; at Kynureninase [2] it was 100 nM.

(Values after ChEMBL document CHEMBL1135940, “2-Amino-4-[3'-hydroxyphenyl]-4-hydroxybutanoic acid; a potent inhibitor of rat and recombinant human kynureninase” (Bioorg Med Chem Lett, 2002).)
